Measured values taken from patent publication US20240270768A1, “A METHOD FOR OBTAINING L-GLUFOSINATE” (UPL LIMITED, priority 2021, published 2024).

What was measured:
[1] = Storage stability of L-glufosinate quinine tetrahydrate salt under standard conditions, analysed by HPLC; format: physicochemical
Protocol: HPLC method: • A) Column—Zorbax SB-C8 (250×4.6 mm i.d., 5 micron) • B) Mobile Phase—0.1% OPA: Acetonitrile (v/v) 40:60 • C) Flow—1.0 ml/min. • D) UV-Wavelength—230 nm • E) Injection volume—5 μl • F) Column temperature 40 °C • G) Run time—10 min
L-glufosinate quinine tetrahydrate salt obtained in example 1 was stored under standard conditions (i.e. room temperature, normal pressure, air atmosphere) for 431 days.

[2] = versus other L-glufosinate quinine hydrates (dihydrate, hexahydrate, dodecahydrate)

In the case of `C=C[C@H]1CN2CC[C@H]1C[C@H]2[C@H](O)c1ccnc2ccc(OC)cc12.CP(=O)(O)CC[C@H](N)C(=O)O.O.O.O.O` [L-glufosinate quinine tetrahydrate salt], the “Duration of desirable stability on storage” value ([1]; ambient conditions and air atmosphere) is reported as “more than 430 days”, the “Moisture content after storage” value ([1]; stored 431 days at room temperature, normal pressure, air atmosphere, initial value 12.04% (Example 1)) is reported as 12.39% and the “Loss on drying after storage” value ([1]; stored 431 days at room temperature, normal pressure, air atmosphere, initial value 12.32% (Example 1)) is reported as 12.27%. For the same compound, the “L-glufosinate acid content (by HPLC) after storage” value ([1]; stored 431 days at room temperature, normal pressure, air atmosphere, initial value 32.70% (Example 1)) was 33.13%, the “Quinine content (by HPLC) after storage” value ([1]; stored 431 days at room temperature, normal pressure, air atmosphere, initial value 54.34% (Example 1)) was 53.14% and the “Storage stability, thermal stability and hygroscopicity compared to other hydrates” value [2] was “improved storage stability, thermal stability and non-hygroscopicity as compared to other hydrates”.
